Reference: patent US5362738A, “Tricyclic pyridone derivatives” (Hoffmann-La Roche Inc., priority 1990, dated 1994)

Tests used:
[1] = tested on: spasmodic seizures caused by pentetrazole; assay: antipentetrazole test (oral, mice); type: in vivo; conditions: Mus musculus, 0.5 h, p.o., 120 mg/kg pentetrazole i.p. 30 minutes later, 10 animals per dosage, Probit method, dosage protecting 50% of animals
Protocol: As mentioned above, the compounds of formula I have valuable pharmacological properties. In particular, they display pronounced muscle relaxant, sedative-hypnotic, anticonvulsive and/or anxiolytic properties and have a low toxicity.
(§1) In this animal experiment the compound under investigation is administered orally to mice and 30 minutes later there are administered intraperitoneally 120 mg/kg of pentetrazole, which causes emprosthotonus and tonic stretchings of the fore and/or hind limbs in unprotected animals 1-4 minutes after the injection. 10 experimental animals are used per dosage of test substance. After counting the protected experimental animals the ED50 is determined according to the Probit method. The ED50 is that dosage which protects 50% of the experimental animals from the spasmodic seizures caused by pentetrazole. The results which have been obtained with representative members of the class of compound defined by formula I in the experiment described previously are compiled in the following Table. Moreover, the Table contains data concerning the acute toxicity (LD50) of some of these compounds in mg/kg in the case of single oral administration to mice.

[2] = acute toxicity (LD50), single oral administration to mice; conditions: mouse, in vivo, p.o.
Protocol: as §1

Compound	ED50 [1]	LD50 [2]
CN1CCN(C(=O)c2cc(-c3ccccc3)c(=O)n3c2-c2ccccc2C3)CC1.Cl [H, 4-Me-piperazino, --CH=CH--CH=CH--, 1-[(4,6-dihydro-4-oxo-3-phenylpyrido[2,1-a]isoindol-1-yl)carbonyl]-4-methyl-piperazine hydrochloride]	5.7 mg/kg	312 mg/kg
CN(C)C(=O)c1cc(-c2ccccc2)c(=O)n2c1-c1ccccc1C2 [H, Me2 N--, --CH=CH--CH=CH--, N,N-dimethyl-4,6-dihydro-4-oxo-3-phenylpyrido[2,1-a]isoindole-1-carboxamide]	0.73 mg/kg	375 mg/kg
COC1CN(C(=O)c2cc(-c3ccccc3)c(=O)n3c2-c2c(Cl)cccc2C3)C1 [H, 3-MeO-azetidino, --CCl=CH--CH=CH--, 1-[(10-chloro-4,6-dihydro-4-oxo-3-phenylpyrido[2,1-a]isoindol-1-yl)carbonyl]-3-methoxyazetidine]	2.2 mg/kg	
COC[C@H]1CCCN1C(=O)c1cc(-c2ccccc2)c(=O)n2c1-c1sccc1C2 [H, (R)-2-MeOCH2 --Py--, --S--CH=CH--, (R)-1-[(4,6-dihydro-6-oxo-7-phenylthieno[2',3':3,4]pyrrolo[1,2-a]pyridin-9-yl)carbonyl]-2-(methoxymethyl)pyrrolidine]	0.76 mg/kg	625 mg/kg
O=C(c1cc(-c2ccccc2)c(=O)n2c1-c1sccc1C2)N1CCOCC1 [H, Morpholino, --S--CH=CH--, 4-[(4,6-dihydro-6-oxo-7-phenylthieno[2',3':3,4]pyrrolo[1,2-a]pyridin-9-yl)carbonyl]-morpholine]	1.32 mg/kg	5000 mg/kg
COC1CN(C(=O)c2cc(-c3ccccc3)c(=O)n3c2-c2ccccc2C3)C1 [H, 3-MeO-azetidino, --CH=CH--CH=CH--, 1-[(4,6-dihydro-4-oxo-3-phenylpyrido[2,1-a]isoindol-1-yl)carbon-yl]-3-methoxyazetidine]	0.39 mg/kg	
CO[C@H]1CCN(C(=O)c2cc(-c3ccccc3)c(=O)n3c2-c2sccc2C3)C1 [H, 3-MeO-pyrrolidino, --S--CH=CH--, (S)-1-[(4,6-dihydro-6-oxo-7-phenylthieno[2',3':3,4]pyrrolo[1,2-a]-pyridin-9-yl)carbonyl]-3-methoxypyrrolidine]	1.7 mg/kg	375 mg/kg
COC[C@H]1CCCN1C(=O)c1cc(-c2ccccc2)c(=O)n2c1-c1ccccc1C2 [H, (R)-2-MeOCH2 --Py--, --CH=CH--CH=CH--, (R)-1-[[4,6-dihydro-4-oxo-3-phenylpyrido[2,1-a]isoindol-1-yl]carbonyl]-2-(methoxymethyl)pyrrolidine]	2.3 mg/kg	1500 mg/kg
COC1CN(C(=O)c2cc(-c3ccccc3)c(=O)n3c2-c2sccc2C3)C1 [H, 3-MeO-azetidino, --S--CH=CH--, 1-[(4,6-dihydro-6-oxo-7-phenylthieno[2',3':3,4]pyrrolo[1,2-a]pyridin-9-yl)-carbonyl]-3-methoxyazetidine]	2.1 mg/kg	2500 mg/kg
